According to PMC1764880, “Acyl-CoA-binding and self-associating properties of a recombinant 13.3 kDa N-terminal fragment of diacylglycerol acyltransferase-1 from oilseed rape” (BMC Biochemistry, 2006):
pKd: −log10 of the molar value.

What was measured:
BnDGAT1(1–116)His6 [1] = target: T1, BnDGAT1(1–116)His6 (Brassica napus, UniProt Q9XGR5); experiment: Lipidex-1000 radioligand binding, Scatchard plot; conditions: read-out: dissociation constant
T1 construct: gene DGAT1; N-terminal hydrophilic cytosolic fragment, residues 1-116, followed by AALE linker and C-terminal His6 (tag kept); pET26b(+), E. coli BL21(DE3), Ni-NTA purified; calculated mass 13,278 Da; self-associates to dimer and tetramer; contains peptide 21-LDRLHRRKSSSDSSN-35
T1 sequence (Q9XGR5 1-116): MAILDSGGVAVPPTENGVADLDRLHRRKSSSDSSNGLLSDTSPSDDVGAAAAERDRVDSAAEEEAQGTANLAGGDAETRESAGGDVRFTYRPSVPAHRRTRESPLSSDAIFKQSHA

BnDGAT1(1–116)His6 [2] = target: T1, BnDGAT1(1–116)His6; experiment: Lipidex-1000 competition binding against [[…]-14C]oleoyl-CoA; conditions: 8 μM free CoA displacing 19 μM [1-14C]oleoyl-CoA, 0.2 μM protein

SMILES | pKd (BnDGAT1(1–116)His6 [1]) | Lipidex-1000 competition binding against [1-14C]oleoyl-CoA (BnDGAT1(1–116)His6 [2])
CCCCCCCC/C=C\CCCCCCCC(=O)SCCNC(=O)CCNC(=O)[C@H](O)C(C)(C)COP(=O)(O)OP(=O)(O)OC[C@H]1O[C@@H](n2cnc3c(N)ncnc32)[C@H](O)[C@@H]1OP(=O)(O)O [oleoyl-CoA] | ~4.77 | 
CC(C)(COP(=O)(O)OP(=O)(O)OC[C@H]1O[C@@H](n2cnc3c(N)ncnc32)[C@H](O)[C@@H]1OP(=O)(O)O)[C@@H](O)C(=O)NCCC(=O)NCCS [CoA] |  | free CoA or oleoyl-CoA was effective in displacing a similar quantity of radiolabeled ligand
CCCCCCCC/C=C\CCCCCCCCCCCC(=O)SCCNC(=O)CCNC(=O)[C@H](O)C(C)(C)COP(=O)(O)OP(=O)(O)OC[C@H]1O[C@@H](n2cnc3c(N)ncnc32)[C@H](O)[C@@H]1OP(=O)(O)O [erucoyl-CoA] | ~5.70 | 
